From patent publication US20250296959A1, “B7-H3 TARGETING PEPTIDES AND CONSTRUCTS THEREOF” (Mariana Oncology Inc., priority 2024, published 2025)
Read-outs that look alike come from different tables or passages of the source. Starred links: 1 amine or outer side, 2 acyl side, 3 side chain; linkers in the order of their positions; H or OH if unused. Positions of bridges follow the written chain, without caps; N, C: chain ends. Non-standard residues stand in square brackets, D forms with d. Residues, ends and D or L forms follow the SMILES beside them. Groups on a side chain read outwards from the residue. *: point of attachment. Ala(1-CH2CO2H-4-piperidyl) = N[C@@H](CC1CCN(CC(=O)O)CC1)C(=O)O; Ala(piperidin-4-yl) = O=C([C@H](CC1CCN([*:3])CC1)N[*:1])[*:2]; Phe(3-CH2NH2) = O=C([C@H](Cc1cccc(CN[*:3])c1)N[*:1])[*:2]; DOTA = O=C(O)CN1CCN(CC(=O)O)CCN(CC(=O)*)CCN(CC(=O)O)CC1; Phe(4-NHCONH2) = NC(=O)Nc1ccc(C[C@H](N)C(=O)O)cc1; Trp(5-F) = N[C@@H](Cc1c[nH]c2ccc(F)cc12)C(=O)O; X1 = C[C@@H](c1ccccc1)[C@H](N[*:1])C(=O)[*:2]; 1Nal = N[C@@H](Cc1cccc2ccccc12)C(=O)O; Ala(4-THP) = N[C@@H](CC1CCOCC1)C(=O)O; Val(3-OH) = CC(C)(O)[C@H](N)C(=O)O; 4Pal = N[C@@H](Cc1ccncc1)C(=O)O; Chg = N[C@H](C(=O)O)C1CCCCC1; PEG4 = NCCOCCOCCOCCOCCC(=O)O; Tle = CC(C)(C)[C@H](N)C(=O)O; hLeu = CC(C)CC[C@H](N)C(=O)O; Ms = CS(=O)(=O)*; Sar = CNCC(=O)O

Experiments:
human 4lg B7-H3 = target: T1, human 4lg B7-H3 (Homo sapiens, UniProt Q5ZPR3); experiment: Affinity determination by surface plasmon resonance (SPR) to 4Ig B7-H3; settings: 4Ig B7-H3
T1 sequence (Q5ZPR3 29-534): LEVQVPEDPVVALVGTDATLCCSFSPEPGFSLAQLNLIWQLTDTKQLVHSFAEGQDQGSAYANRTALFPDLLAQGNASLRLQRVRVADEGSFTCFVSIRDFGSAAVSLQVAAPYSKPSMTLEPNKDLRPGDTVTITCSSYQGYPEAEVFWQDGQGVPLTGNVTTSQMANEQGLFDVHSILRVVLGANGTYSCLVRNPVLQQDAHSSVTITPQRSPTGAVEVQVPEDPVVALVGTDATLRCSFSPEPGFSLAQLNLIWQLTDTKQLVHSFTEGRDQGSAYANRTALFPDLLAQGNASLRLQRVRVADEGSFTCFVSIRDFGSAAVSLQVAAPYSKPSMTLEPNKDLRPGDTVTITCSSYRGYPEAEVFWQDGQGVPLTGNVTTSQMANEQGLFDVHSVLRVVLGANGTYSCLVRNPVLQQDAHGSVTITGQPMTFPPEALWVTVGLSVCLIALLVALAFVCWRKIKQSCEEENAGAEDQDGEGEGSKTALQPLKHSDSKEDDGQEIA

Calu-6 cell line [1] = experiment: Net internalization of [177Lu]Lu-labeled peptide in Calu-6 cells; type: cell-based, Human; settings: 1 hour, 37° C., glycine pH 2.5 acid wash
Experimental: (§1) [^177Lu]LuCl3 was received from venders in HCl solution. For every mCi of [^177Lu]LuCl3 added to the reaction vial (1.5 mL Eppendorf vial), ammonium acetate buffer (0.2 M, pH 4.9, 100 μL, containing 1% w/v ascorbic acid and 6% v/v ethanol) and peptide conjugate (1 nmol) was added. The pH of the solution was determined to be approximately 5 by using pH strips. The reaction vial was incubated at 80° C., 700 RPM for 17-20 minutes. A sample from the reaction was analyzed by RP-HPLC using an Agilent Infinity II 1260 HPLC to determine reaction completion and radiochemical purity. HPLC conditions: Waters XBridge BEH C18 Column, 130 Å, 3.5 μm, 4.6 mm×250 mm; mobile phase: Solvent A=water (with 0.1% formic acid), solvent B=acetonitrile (with 0.1% formic acid). Gradients: 25-45% B in 10 minutes, 45-65% B in 12 minutes, 65-90% in 6 minutes at a flow rate of 0.5 mL/minute. Required amounts of the product were formulated in 1% PBSA for cell studies.
(§2) The study was conducted using Calu-6 cell line (Table 8)
(§3) Adherent cell studies: The cells were cultured in appropriate culture media (20 mL) in tissue culture treated T150 flasks at 37° C. and 5% CO2. Adherent cells were detached (60-70% confluent) using 5 mL Versene at 37° C. for 3 minutes. After confirming the viability using countess and count of detached cells using Trypan blue, the cells were centrifuged at 4° C. for 5 minutes (1,000 revolutions per minute). The cell pellet obtained was washed once with PBS and resuspended in 1% PBSA to obtain the desired cell concentration (5 million cells/mL).
Net internalization: The resuspended cells in 300 μl of 1% PBSA and counted in the gamma counter as “bound fraction” were collected in 1.5 mL Eppendorf tube and pelleted. The pelleted cells were incubated with 300 μl of 50 mM Glycine pH=2.5 for 3 minutes and then pelleted discarding the supernatant. This process was repeated one more time. The pelleted cells were washed with 300 μl of cold 1% PBSA and then resuspended in 300 μl 0.3 M NaOH. This was counted in the gamma counter as “internalized fraction”.
(§4) Calu-6 Cells are Human-Derived, Non-Engineered Lung Cancer Cell that Express B7-H3.

Calu-6 cell line [2] = experiment: Cell associated (bound) fraction of [177Lu]Lu-labeled peptide in Calu-6 cells; type: cell-based, Human; settings: 1 hour, 37° C.
Experimental: as §1, §2, §3
Cell associated fraction: Cells were incubated with 300 μL (0.8 μCi) of the incubation buffer (containing radiolabeled peptide [^177Lu]Lu-test peptide) for 1 hour at 37 C (Table 9). Post incubation, the cells were pelleted and washed 2 times using cold PBS+1% BSA. The supernatant and washes were combined and counted together as “unbound fraction” in a gamma counter. The cells were then resuspended in 300 μL of 1% PBS+1% BSA and counted in the gamma counter as cell associated fraction (or bound fraction).
as §4

[3] = read-out: SPR KD—25° C., 25° C. flow cell temperature
[4] = read-out: SPR KD—37° C., 37° C. flow cell temperature
[5] = SPR KD—25° C., 25° C. flow cell temperature

## CC(=O)N[C@@H](CCC(C)C)C(=O)N[C@@H](Cc1ccc(O)cc1)C(=O)N[C@H]1CSSC[C@@H](C(=O)N[C@@H](Cc2c[nH]c3ccccc23)C(=O)N[C@@H](Cc2ccccc2)C(=O)N[C@H](C(=O)N[C@H](CCCCNC(=O)CN2CCN(CC(=O)O)CCN(CC(=O)O)CCN(CC(=O)O)CC2)C(N)=O)[C@@H](C)O)NC(=O)[C@H](Cc2ccc(O)cc2)NC(=O)[C@H](C(C)C)NC(=O)[C@H](CC(=O)O)NC(=O)[C@H](Cc2ccc(O)cc2)NC(=O)[C@H](CCCCN)NC(=O)CN(C)C(=O)[C@H](C(C)C)NC1=O [compound 74, Ac-hLeu-Y-C-V-Sar-K-Y-D-V-Y-C-W-F-Thr-dLys(DOTA)-CONH2] (Ac-[hLeu]YCV[Sar]KYDVYCWFT[dK](DOTA)-NH2; disulfide 3-11)
Human 4lg B7-H3; [3]
  Kd: 1 to 10 nM
Calu-6 cell line [1]
  % net internalization: A (%≤25)
Calu-6 cell line [2]
  % cell associated fraction: B (25<%≤50)

## CC(=O)N[C@@H](CCC(C)C)C(=O)N[C@@H](Cc1ccc(O)cc1)C(=O)N[C@H]1CSSC[C@@H](C(=O)N[C@@H](Cc2c[nH]c3ccc(F)cc23)C(=O)N[C@@H](Cc2ccccc2)C(=O)N[C@H](C(=O)N[C@H](CCCCNC(=O)CN2CCN(CC(=O)O)CCN(CC(=O)O)CCN(CC(=O)O)CC2)C(N)=O)[C@@H](C)O)NC(=O)[C@H](Cc2ccc(O)cc2)NC(=O)[C@H](C2CCCCC2)NC(=O)[C@H](CC(=O)O)NC(=O)[C@H](Cc2ccncc2)NC(=O)[C@H](CCCCN)NC(=O)CNC(=O)[C@H](C(C)C)NC1=O [compound 190, Ac-hLeu-Y-C-V-G-K-4PyA-D-ChG-Y-C-5FW-F-Thr-dLys(DOTA)-CONH2] (Ac-[hLeu]YCVGK[4Pal]D[Chg]YC[Trp(5-F)]FT[dK](DOTA)-NH2; disulfide 3-11)
Human 4lg B7-H3; [3]
  Kd: < 1 nM
Calu-6 cell line [1]
  % net internalization: B (25<%≤50)
Calu-6 cell line [2]
  % cell associated fraction: C (%>50)

## CC(C)CC[C@H](NS(C)(=O)=O)C(=O)N[C@@H](Cc1ccc(O)cc1)C(=O)N[C@H]1CSSC[C@@H](C(=O)N[C@@H](Cc2c[nH]c3ccc(F)cc23)C(=O)N[C@@H](Cc2ccccc2)C(=O)N[C@H](C(=O)N[C@H](CCCCNC(=O)CN2CCN(CC(=O)O)CCN(CC(=O)O)CCN(CC(=O)O)CC2)C(=O)O)C(C)(C)O)NC(=O)[C@H](Cc2ccc(O)cc2)NC(=O)[C@H](C(C)C)NC(=O)[C@H](CC(=O)O)NC(=O)[C@H](CC2CCOCC2)NC(=O)[C@H](CC2CCNCC2)NC(=O)CNC(=O)[C@H](C(C)(C)C)NC1=O [Cpd #437, MeSO2-hLeu-Y-C-Tbg-G-PipAla-ThpA-D-V-Y-C-5FW-F-hydroxyVal-dLys(DOTA)-COOH] (Ms-[hLeu]YC[Tle]G[Ala(piperidin-4-yl)][Ala(4-THP)]DVYC[Trp(5-F)]F[Val(3-OH)][dK](DOTA)-OH; disulfide 3-11)
Human 4lg B7-H3; [4]
  Kd: < 1 nM
Calu-6 cell line [1]
  % net internalization: A (%≤25)
Calu-6 cell line [2]
  % cell associated fraction: B (25<%≤50)

## CC(=O)N[C@@H](CCC(C)C)C(=O)N[C@@H](Cc1ccc(O)cc1)C(=O)N[C@H]1CSSC[C@@H](C(=O)N[C@@H](Cc2cccc3ccccc23)C(=O)N[C@@H](Cc2ccccc2)C(=O)N[C@H](C(=O)N[C@H](CCCCNC(=O)CN2CCN(CC(=O)O)CCN(CC(=O)O)CCN(CC(=O)O)CC2)C(N)=O)[C@@H](C)O)NC(=O)[C@H](Cc2ccc(O)cc2)NC(=O)[C@H](C(C)C)NC(=O)[C@H](CC(=O)O)NC(=O)[C@H](Cc2ccc(O)cc2)NC(=O)[C@H](CCCCN)NC(=O)CNC(=O)[C@H](C(C)C)NC1=O [compound 158, Ac-hLeu-Y-C-V-G-K-Y-D-V-Y-C-1Nal-F-Thr-dLys(DOTA)-CONH2] (Ac-[hLeu]YCVGKYDVYC[1Nal]FT[dK](DOTA)-NH2; disulfide 3-11)
Human 4lg B7-H3; [5]
  Kd: < 1 nM
Calu-6 cell line [1]
  % net internalization: B (25<%≤50)
Calu-6 cell line [2]
  % cell associated fraction: C (%>50)

## CC(=O)N[C@@H](CCC(C)C)C(=O)N[C@@H](Cc1ccc(O)cc1)C(=O)N[C@H]1CSSC[C@@H](C(=O)N[C@@H](Cc2c[nH]c3ccc(F)cc23)C(=O)N[C@H](C(=O)N[C@H](C(=O)N[C@H](CCCCNC(=O)CN2CCN(CC(=O)O)CCN(CC(=O)O)CCN(CC(=O)O)CC2)C(=O)O)C(C)(C)O)[C@@H](C)c2ccccc2)NC(=O)[C@H](Cc2ccc(NC(N)=O)cc2)NC(=O)[C@H](C(C)C)NC(=O)[C@H](CC(=O)O)NC(=O)[C@H](CC2CCOCC2)NC(=O)[C@H](CC2CCN(CC(=O)O)CC2)NC(=O)CNC(=O)[C@H](C(C)(C)C)NC1=O [compound 499, Ac-hLeu-Y-C-Tbg-G-Pip(CH2COOH)Ala-ThpA-D-V-Aph(Cbm)-C-5FW-[(2S, 3S)beta-Me-Phe]-hydroxyVal-dLys(DOTA)-COOH] (Ac-[hLeu]YC[Tle]G[Ala(1-CH2CO2H-4-piperidyl)][Ala(4-THP)]DV[Phe(4-NHCONH2)]C[Trp(5-F)][X1][Val(3-OH)][dK](DOTA)-OH; disulfide 3-11)
Human 4lg B7-H3; [4]
  Kd: < 1 nM
Calu-6 cell line [1]
  % net internalization: A (%≤25)
Calu-6 cell line [2]
  % cell associated fraction: C (%>50)

## CC(=O)N[C@@H](CCC(C)C)C(=O)N[C@@H](Cc1ccc(O)cc1)C(=O)N[C@H]1CSSC[C@@H](C(=O)N[C@@H](Cc2c[nH]c3ccc(F)cc23)C(=O)N[C@@H](Cc2ccccc2)C(=O)N[C@H](C(=O)N[C@H](CCC(=O)O)C(N)=O)C(C)(C)O)NC(=O)[C@H](Cc2ccc(O)cc2)NC(=O)[C@H](C(C)C)NC(=O)[C@H](CC(=O)O)NC(=O)[C@H](CC2CCN(C(=O)CCOCCOCCOCCOCCNC(=O)CN3CCN(CC(=O)O)CCN(CC(=O)O)CCN(CC(=O)O)CC3)CC2)NC(=O)[C@H](CC2CCNCC2)NC(=O)CNC(=O)[C@H](C(C)(C)C)NC1=O [compound 444, Ac-hLeu-Y-C-Tbg-G-PipAla-Pip(PEG4-DOTA)Ala-D-V-Y-C-5FW-F-hydroxyVal-dGlu-CONH2] (Ac-[hLeu]YC[Tle]G[Ala(piperidin-4-yl)][Ala(piperidin-4-yl)]([PEG4-DOTA])DVYC[Trp(5-F)]F[Val(3-OH)][dE]-NH2; disulfide 3-11)
Human 4lg B7-H3; [4]
  Kd: < 1 nM
Calu-6 cell line [1]
  % net internalization: A (%≤25)
Calu-6 cell line [2]
  % cell associated fraction: B (25<%≤50)

## CC(=O)N[C@@H](CCC(C)C)C(=O)N[C@@H](Cc1ccc(O)cc1)C(=O)N[C@H]1CSSC[C@@H](C(=O)N[C@@H](Cc2c[nH]c3ccc(F)cc23)C(=O)N[C@@H](Cc2ccccc2)C(=O)N[C@H](C(N)=O)[C@@H](C)O)NC(=O)[C@H](Cc2ccc(O)cc2)NC(=O)[C@H](C(C)C)NC(=O)[C@H](CC(=O)O)NC(=O)[C@H](Cc2cccc(CNC(=O)CN3CCN(CC(=O)O)CCN(CC(=O)O)CCN(CC(=O)O)CC3)c2)NC(=O)[C@H](CCCCN)NC(=O)CNC(=O)[C@H](C(C)C)NC1=O [compound 182, Ac-hLeu-Y-C-V-G-K-MAF(DOTA)-D-V-Y-C-5FW-F-Thr-CONH2] (Ac-[hLeu]YCVGK[Phe(3-CH2NH2)](DOTA)DVYC[Trp(5-F)]FT-NH2; disulfide 3-11)
Human 4lg B7-H3; [5]
  Kd: < 1 nM
Calu-6 cell line [1]
  % net internalization: C (%>50)
Calu-6 cell line [2]
  % cell associated fraction: C (%>50)
